# Target: T1, human vasopressin V1b receptor (Homo sapiens, UniProt P47901)
# T1 construct: expressed in transfected cells; host or cells: CHO-K1 (cell line hV1b_3H2_CHO), membrane preparation
# T1 sequence (P47901 1-424): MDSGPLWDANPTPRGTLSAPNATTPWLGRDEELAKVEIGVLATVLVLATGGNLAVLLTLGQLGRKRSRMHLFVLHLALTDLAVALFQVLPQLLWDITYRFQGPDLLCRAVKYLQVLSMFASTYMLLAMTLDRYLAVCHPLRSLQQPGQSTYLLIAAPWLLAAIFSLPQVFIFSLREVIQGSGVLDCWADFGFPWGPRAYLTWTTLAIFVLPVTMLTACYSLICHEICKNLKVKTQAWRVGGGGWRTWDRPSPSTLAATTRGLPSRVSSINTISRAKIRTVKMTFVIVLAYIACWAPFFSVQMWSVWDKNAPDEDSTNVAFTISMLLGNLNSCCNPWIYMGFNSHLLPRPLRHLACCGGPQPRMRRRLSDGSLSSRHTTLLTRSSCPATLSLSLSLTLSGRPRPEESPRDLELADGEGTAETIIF
# Assay: Vasopressin V1b receptor binding test
# Conditions: membranes of CHO-K1 cells with human V1b receptor, displacement of 1.5 nM 3H-AVP; for compounds with more than one stereogenic center the diastereomer with greater affinity
# How it was run: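 Radioligand displacement on membranes carrying human V1b receptor in 50 mM tris, 10 mM MgCl2, 0.1% BSA, pH 7.4, 2% DMSO final; 60 min at room temperature, nonspecific binding with 1 μM AVP. Free ligand removed by filtration, bound counted by liquid scintillation, Ki from nonlinear regression of triplicates.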
row,Ki,Structure (SMILES)
1,10 to 100 nM,"COc1ccc(S(=O)(=O)N2C(=O)C(NCc3ncco3)(c3cc(CN4CCN(C)CC4)ccc3OC)c3cc(Cl)ccc32)cc1 (centres unmarked) [Example 110, 5-Chloro-1-(4-methoxybenzenesulfonyl)-3-[2-methoxy-5-(4-methylpiperazin-1-ylmethyl)phenyl]-3-[(oxazol-2-ylmethyl)amino]-1,3-dihydroindol-2-one]"
2,10 to 100 nM,"COc1ccc(S(=O)(=O)N2C(=O)C(NCc3ncco3)(c3cc(CNCCO)ccc3OC)c3cc(Cl)ccc32)cc1 (centres unmarked) [Example 111, 5-Chloro-3-{5-[(2-hydroxyethylamino)methyl]-2-methoxyphenyl}-1-(4-methoxybenzenesulfonyl)-3-[(oxazol-2-ylmethyl)amino]-1,3-dihydroindol-2-one]"
3,< 10 nM,"COc1ccc(S(=O)(=O)N2C(=O)C(c3cc(CN4CCNCC4)ccc3OC)(N3C[C@H](O)C[C@H]3c3ncco3)c3cc(Cl)ccc32)cc1 (stereo partly drawn) [Example 113, 5-Chloro-3-((2S,4R)-4-hydroxy-2-oxazol-2-yl-pyrrolidin-1-yl)-1-(4-methoxybenzenesulfonyl)-3-(2-methoxy-5-(piperazin-1-ylmethyl)phenyl)-1,3-dihydroindol-2-one]"
4,< 10 nM,"COc1ccc(S(=O)(=O)N2C(=O)C(c3cc(CN4CCCC4)ccc3OC)(N3C[C@H](O)C[C@H]3c3ncco3)c3cc(Cl)ccc32)cc1 (stereo partly drawn) [Example 114, 5-Chloro-3-((2S,4R)-4-hydroxy-2-oxazol-2-yl-pyrrolidin-1-yl)-1-(4-methoxybenzenesulfonyl)-3-(2-methoxy-5-(pyrrolidin-1-ylmethyl)phenyl)-1,3-dihydroindol-2-one]"
5,< 10 nM,"CCCNCc1ccc(OC)c(C2(N3C[C@H](O)C[C@H]3c3ncco3)C(=O)N(S(=O)(=O)c3ccc(OC)cc3)c3ccc(Cl)cc32)c1 (stereo partly drawn) [Example 115, 5-Chloro-3-((2S,4R)-4-hydroxy-2-oxazol-2-yl-pyrrolidin-1-yl)-1-(4-methoxybenzenesulfonyl)-3-(2-methoxy-5-(propylaminomethyl)phenyl)-1,3-dihydroindol-2-one]"
6,< 10 nM,"CCCNCc1ccc(OC)c(C2(N3CCC[C@H]3c3ncco3)C(=O)N(S(=O)(=O)c3ccc(OC)cc3)c3ccc(Cl)cc32)c1 (stereo partly drawn) [Example 116, 5-Chloro-1-(4-methoxybenzenesulfonyl)-3-(2-methoxy-5-(propylaminomethyl)phenyl)-3-((S)-2-oxazol-2-yl-pyrrolidin-1-yl)-1,3-dihydroindol-2-one]"
7,10 to 100 nM,"COc1ccc(S(=O)(=O)N2C(=O)C(c3cc(CN(C)C)ccc3OC)(N3CCCC3c3nccs3)c3cc(Cl)ccc32)cc1 (centres unmarked) [Example 117, 5-Chloro-3-(5-dimethylaminomethyl-2-methoxyphenyl)-1-(4-methoxybenzenesulfonyl)-3-(2-thiazol-2-yl-pyrrolidin-1-yl)-1,3-dihydroindol-2-one]"
8,10 to 100 nM,"COc1ccc(S(=O)(=O)N2C(=O)C(c3cc(CN4CCCC4)ccc3OC)(N3CCCC3c3nccs3)c3cc(Cl)ccc32)cc1 (centres unmarked) [Example 118, 5-Chloro-1-(4-methoxybenzenesulfonyl)-3-(2-methoxy-5-(pyrrolidin-1-ylmethyl)phenyl)-3-(2-thiazol-2-yl-pyrrolidin-1-yl)-1,3-dihydroindol-2-one]"
9,10 to 100 nM,"COc1ccc(S(=O)(=O)N2C(=O)C(c3cc(CN4CCN(C)CC4)ccc3OC)(N3CCCC3c3nccs3)c3cc(Cl)ccc32)cc1 (centres unmarked) [Example 119, 5-Chloro-1-(4-methoxybenzenesulfonyl)-3-[2-methoxy-5-(4-methylpiperazin-1-ylmethyl)phenyl]-3-(2-thiazol-2-yl-pyrrolidin-1-yl)-1,3-dihydroindol-2-one]"

# Second part, the molecule before the results:
row,Structure (SMILES),Ki
1,"COc1ccc(S(=O)(=O)N2C(=O)C(c3cc(CN4CCOCC4)ccc3OC)(N3CCC[C@H]3c3ncco3)c3cc(Cl)ccc32)cc1 (stereo partly drawn) [Example 96, 5-Chloro-1-(4-methoxybenzenesulfonyl)-3-(2-methoxy-5-(morpholin-4-ylmethyl)phenyl)-3-((S)-2-oxazol-2-yl-pyrrolidin-1-yl)-1,3-dihydroindol-2-one]",10 to 100 nM
2,"CNCc1ccc(C2(N3CCC[C@H]3c3ncco3)C(=O)N(S(=O)(=O)c3ccc(OC)cc3)c3ccc(C#N)cc32)c(OC)c1 (stereo partly drawn) [Example 97, 5-Cyano-1-(4-methoxybenzenesulfonyl)-3-(2-methoxy-4-methylaminomethylphenyl)-3-((S)-2-oxazol-2-yl-pyrrolidin-1-yl)-1,3-dihydroindol-2-one]",10 to 100 nM
3,"CCNCc1ccc(C2(N3CCC[C@H]3c3ncco3)C(=O)N(S(=O)(=O)c3ccc(OC)cc3)c3ccc(C#N)cc32)c(OC)c1 (stereo partly drawn) [Example 98, 5-Cyano-3-(4-ethylaminomethyl-2-methoxyphenyl)-1-(4-methoxybenzenesulfonyl)-3-((S)-2-oxazol-2-yl-pyrrolidin-1-yl)-1,3-dihydroindol-2-one]",10 to 100 nM
4,"CCCNCc1ccc(C2(N3CCC[C@H]3c3ncco3)C(=O)N(S(=O)(=O)c3ccc(OC)cc3)c3ccc(C#N)cc32)c(OC)c1 (stereo partly drawn) [Example 99, 5-Cyano-1-(4-methoxybenzenesulfonyl)-3-(2-methoxy-4-(propylaminomethyl)phenyl)-3-((S)-2-oxazol-2-yl-pyrrolidin-1-yl)-1,3-dihydroindol-2-one]",10 to 100 nM
5,"COc1ccc(S(=O)(=O)N2C(=O)C(c3ccc(CNC(C)C)cc3OC)(N3CCC[C@H]3c3ncco3)c3cc(C#N)ccc32)cc1 (stereo partly drawn) [Example 100, 5-Cyano-3-[4-(isopropylaminomethyl)-2-methoxyphenyl]-1-(4-methoxybenzenesulfonyl)-3-((S)-2-oxazol-2-yl-pyrrolidin-1-yl)-1,3-dihydroindol-2-one]",10 to 100 nM
6,"COc1ccc(S(=O)(=O)N2C(=O)C(c3ccc(CN4CCCC4)cc3OC)(N3CCC[C@H]3c3ncco3)c3cc(C#N)ccc32)cc1 (stereo partly drawn) [Example 101, 5-Cyano-1-(4-methoxybenzenesulfonyl)-3-(2-methoxy-4-(pyrrolidin-1-ylmethyl)phenyl)-3-((S)-2-oxazol-2-yl-pyrrolidin-1-yl)-1,3-dihydroindol-2-one]",10 to 100 nM
7,"COc1ccc(S(=O)(=O)N2C(=O)C(c3cc(CN(C)C)ccc3OC)(N3C[C@H](O)C[C@H]3c3ncco3)c3cc(Cl)ccc32)cc1 (stereo partly drawn) [Example 102, 5-Chloro-3-(5-dimethylaminomethyl-2-methoxyphenyl)-3-((2S,4R)-4-hydroxy-2-oxazol-2-yl-pyrrolidin-1-yl)-1-(4-methoxybenzenesulfonyl)-1,3-dihydroindol-2-one]",< 10 nM
8,"COc1ccc(S(=O)(=O)N2C(=O)C(c3cc(CN4CCN(C)CC4)ccc3OC)(N3C[C@H](O)C[C@H]3c3ncco3)c3cc(Cl)ccc32)cc1 (stereo partly drawn) [Example 103, 5-Chloro-3-((2S,4R)-4-hydroxy-2-oxazol-2-yl-pyrrolidin-1-yl)-1-(4-methoxybenzenesulfonyl)-3-[2-methoxy-5-(4-methylpiperazin-1-ylmethyl)phenyl]-1,3-dihydroindol-2-one]",< 10 nM
9,"COc1ccc(S(=O)(=O)N2C(=O)C(c3cc(CN4CCN(C(C)C)CC4)ccc3OC)(N3CCC[C@H]3c3ncco3)c3cc(Cl)c(Cl)cc32)cc1 (stereo partly drawn) [Example 104, 5,6-Dichloro-3-[5-(4-isopropylpiperazin-1-ylmethyl)-2-methoxyphenyl]-1-(4-methoxybenzenesulfonyl)-3-((S)-2-oxazol-2-yl-pyrrolidin-1-yl)-1,3-dihydroindol-2-one]",10 to 100 nM
10,"CNCc1ccc(OC)c(C2(N3C[C@H](O)C[C@H]3c3ncco3)C(=O)N(S(=O)(=O)c3ccc(OC)cc3)c3ccc(Cl)cc32)c1 (stereo partly drawn) [Example 105, 5-Chloro-3-((2S,4R)-4-hydroxy-2-oxazol-2-yl-pyrrolidin-1-yl)-1-(4-methoxybenzenesulfonyl)-3-(2-methoxy-5-(methylaminomethyl)phenyl)-1,3-dihydroindol-2-one]",< 10 nM
11,"COc1ccc(S(=O)(=O)N2C(=O)C(c3cc(CNC(C)(C)C)ccc3OC)(N3CCC[C@H]3c3ncco3)c3cc(Cl)c(Cl)cc32)cc1 (stereo partly drawn) [Example 106, 5,6-Dichloro-3-[5-(tert-butylaminomethyl)-2-methoxyphenyl]-1-(4-methoxybenzenesulfonyl)-3-((S)-2-oxazol-2-yl-pyrrolidin-1-yl)-1,3-dihydroindol-2-one]",10 to 100 nM
12,"COc1ccc(S(=O)(=O)N2C(=O)C(c3cc(CN4CCN(CCO)CC4)ccc3OC)(N3CCC[C@H]3c3ncco3)c3cc(Cl)c(Cl)cc32)cc1 (stereo partly drawn) [Example 107, 5,6-Dichloro-3-{5-[4-(2-hydroxyethyl)piperazin-1-ylmethyl]-2-methoxyphenyl}-1-(4-methoxybenzenesulfonyl)-3-((S)-2-oxazol-2-yl-pyrrolidin-1-yl)-1,3-dihydroindol-2-one]",10 to 100 nM
13,"COc1ccc(S(=O)(=O)N2C(=O)C(NCc3ncco3)(c3cc(CN(C)C)ccc3OC)c3cc(Cl)ccc32)cc1 (centres unmarked) [Example 108, 5-Chloro-3-(5-dimethylaminomethyl-2-methoxyphenyl)-1-(4-methoxybenzenesulfonyl)-3-[(oxazol-2-ylmethyl)amino]-1,3-dihydroindol-2-one]",10 to 100 nM
14,"COc1ccc(S(=O)(=O)N2C(=O)C(NCc3ncco3)(c3cc(CN4CCCC4)ccc3OC)c3cc(Cl)ccc32)cc1 (centres unmarked) [Example 109, 5-Chloro-1-(4-methoxybenzenesulfonyl)-3-(2-methoxy-5-pyrrolidin-1-ylmethylphenyl)-3-[(oxazol-2-ylmethyl)amino]-1,3-dihydroindol-2-one]",10 to 100 nM

# Source: patent US8044079B2, “Substituted oxindole derivatives, medicaments containing said derivatives and use thereof” (Abbott GmbH & Co. KG, priority 2005, dated 2011)
